The results in this text go back to patent US10787423B2, “Piperazine and piperidine derivatives, their synthesis and use thereof in inhibiting VDAC oligomerization, apoptosis and mitochondria dysfunction” (THE NATIONAL INSTITUTE FOR BIOTECHNOLOGY IN THE NEGEV LTD., priority 2015, dated 2020).

This experiment concerns the target T1, rVDAC1-GFP2 / rVDAC1-Rluc in T-REx-293 cells (Rattus norvegicus, UniProt Q9Z2L0).
T1 construct: The rVDAC1 gene was cloned into BamHI and HindIII sites of the BRET2 plasmids (N2 variants); expressed in transfected cells; host or cells: T-REx-293 cells stably expressing hVDAC1-shRNA (T-REx-pS10)
Put plainly: BRET2 assay of VDAC1 oligomerization induced by apoptosis inducers (Method A). The format is cell-based. The conditions noted are these: test compound 10 μM, 1 h pre-incubation; for BRET2, % of inhibition, As2O3: As2O3 60 μM (3 h); for BRET2, % of inhibition, STS: STS 1 μM (3 h); for BRET2, % of inhibition, Selenite: selenite 30 μM (3 h). From the text: BRET2 screening may be carried out as described in the art ([…] et al., (2010) Oligomerization of the mitochondrial protein voltage-dependent anion channel is coupled to the induction of apoptosis. Mol Cell Biol 30, 5698-5709). Plasmids encoding the fusion proteins rat(r)VDAC1-GFP2 and rVDAC1-luc were constructed using the BRET2 plasmids (Perkin Elmer, Waltham, Mass.). The rVDAC1 gene was cloned into BamHI and HindIII sites of the BRET2 plasmids (N2 variants) and amplified using the forward primer [NT] and the reverse primer [NT]. […] The cells were transfected using calcium phosphate method. Transfections were carried out with 0.2 μg of a plasmid coding for rVDAC1-Rluc and with 0.8 μg of a plasmid coding for rVDAC1-GFP2. As a negative control, cells were transfected with plasmids encoding for rVDAC1-Rluc (0.2 μg DNA) and GFP2 (0.8 μg). In another control (control cells), cells were also transfected with a plasmid encoding for rVDAC1-luc (0.2 μg) and plasmid pcDNA4/TO (0.8 μg). The BRET2 signal represents the ratio of the GFP2 fluorescence, measured at its emission wavelength (510 nm), over the light intensity (luminescence) emitted at 395 nm. All measurements were performed using the Infinite 200 ELISA reader (Tecan). BRET2 signals were defined as GFP2/Rluc intensity ratio and calculated as follows: DNA encoding fusion proteins rVDAC1-Rluc (in which RLuc was connected to rVDAC1 at the C terminal position through a linker (GGGS)) and rVDAC1-GFP2 (in which the GFP2 was fused to the rVDAC1 C terminus) was cloned into BRET2 vectors. rVDAC1-GFP2 and rVDAC1-Rluc were expressed in T-REx-293 cells stably expressing shRNA-hVDAC1 and a low level of endogenous hVDAC1 (referred to as T-REx-pS10 cells) hVDAC1-shRNA, being specific to human VDAC1, allowed the expression of rVDAC1 and decreased the participation of endogenous hVDAC1 in oligomerization, thereby enhancing the BRET2 signal. rVDAC1-GFP2 and rVDAC1-Rluc expression levels were correlated with the amount of plasmids used. […] Following incubation, cells were harvested using trypsin, washed twice with PBS by centrifugation at 1000×g, 5 min, resuspended in 200 μl of PBS and divided between two wells of a 96-well clear-bottom plate (Grenier). […] The screening was conducted using BRET2 assay as described above. […] After treatment, the medium was removed and assayed for BRET2 signals as described above. Liquid handling was done with the Tecan (Männedorf, Switzerland) Freedom 150 Robotic & MCA Liquid Handling System, while luciferase luminescence and fluorescence readings were obtained a robot-integrated Tecan Infinite M1000 reader. Method A was used for screening of VDAC1 oligomerization inhibitors. […] Table 2 provides a summary of BRET2-based screen results of the anti-VDAC1 oligomerization activity of compounds from the NCI library. Results are presented as percent inhibition of the BRET2 signal induced by the indicated pro-apoptotic agent.
For orientation: In BRET a luciferase serves as donor, and the signal depends on an acceptor being close.

Molecules are shown by their SMILES.

T1 sequence (Q9Z2L0 with tags, fused parts or gaps limits assumed): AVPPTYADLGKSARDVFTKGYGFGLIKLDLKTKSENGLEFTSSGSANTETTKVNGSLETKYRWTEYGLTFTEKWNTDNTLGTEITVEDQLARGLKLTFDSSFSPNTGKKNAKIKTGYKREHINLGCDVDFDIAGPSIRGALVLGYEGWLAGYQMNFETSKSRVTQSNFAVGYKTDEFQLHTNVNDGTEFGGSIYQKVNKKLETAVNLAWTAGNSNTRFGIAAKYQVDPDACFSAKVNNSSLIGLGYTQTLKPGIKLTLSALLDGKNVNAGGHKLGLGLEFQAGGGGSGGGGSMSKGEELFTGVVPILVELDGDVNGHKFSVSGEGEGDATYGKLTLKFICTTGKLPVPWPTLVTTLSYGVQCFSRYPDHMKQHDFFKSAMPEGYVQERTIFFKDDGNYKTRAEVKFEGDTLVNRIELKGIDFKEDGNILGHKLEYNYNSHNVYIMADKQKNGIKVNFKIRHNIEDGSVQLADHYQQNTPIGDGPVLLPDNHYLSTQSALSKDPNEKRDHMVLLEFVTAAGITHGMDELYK

For the compound `CCCOc1nc2c(c(=O)n(C)c(=O)n2C)n1C` [NSC 8816], the “BRET2, % of inhibition, As2O3” value is recorded as 49.6%; the “BRET2, % of inhibition, STS” value is recorded as 0%; the “BRET2, % of inhibition, Selenite” value came to 20.1%.
Consider `COc1ccc(/C=C2/CCOC2=O)cc1` [NSC 10428], for which the “BRET2, % of inhibition, As2O3” value was 96.4%; the “BRET2, % of inhibition, STS” value was determined as 38.2%; the “BRET2, % of inhibition, Selenite” value was determined as 75.7%.
`CCOC(=O)c1[nH]c(CO)c(C(=O)OCC)c1C` [NSC 10768]: the “BRET2, % of inhibition, As2O3” value was determined as 52%; the “BRET2, % of inhibition, STS” value amounted to 0%; the “BRET2, % of inhibition, Selenite” value is on record as 9.6%.
On to `Oc1ccc(Cc2ccc(Cl)cc2)c(O)c1` [NSC 11150], for which the “BRET2, % of inhibition, As2O3” value was found to be 95.2%; the “BRET2, % of inhibition, STS” value is reported as 11.6%; the “BRET2, % of inhibition, Selenite” value was 67%.
On the same counts, the results for `CCOC(=O)N1CCN(Cc2c(O)ccc3ccccc23)CC1` [NSC 12262] are 81.5%, 0% and 67.4%.
On the same counts, the results for `O=C(/C=C/c1ccccc1Cl)c1ccc(O)cc1` [NSC 13151] are 67%, 0% and 0%.
On the same counts, the results for `Nc1ccc(C(=O)Nc2cccc(N)c2)cc1` [NSC 15362] are 98%, 39.7% and 41%.
As to `Nc1ccc(NC(=O)Nc2ccc(N)cc2)cc1` [NSC 15364], the “BRET2, % of inhibition, As2O3” value was 85.4%; the “BRET2, % of inhibition, STS” value is given as 40.9%; the “BRET2, % of inhibition, Selenite” value was determined as 75.9%.
On the same counts, the results for `O=C(O)c1ccc(O)c(O)c1` [NSC 16631] are 0%, 30.5% and 41.5%.
`Nc1ncnc2c1cnn2C1CCCCC1` [NSC 19115]: the “BRET2, % of inhibition, As2O3” value worked out at 64.2%; the “BRET2, % of inhibition, STS” value was 36.4%; the “BRET2, % of inhibition, Selenite” value was 62%.
For `S=c1nc[nH]c2c1ncn2C1CCCC1` [NSC 19487] the same measures were 88.8%, 32.6% and 68.6%.
For `O=[N+]([O-])c1cccc(/C=C/c2ccccn2)c1` [NSC 19637] the same measures were 76.2%, 0% and 61.8%.
In the case of `CC(C)NC(=O)c1ccc(C(C)C)cc1` [NSC 20045], the “BRET2, % of inhibition, As2O3” value worked out at 88%; the “BRET2, % of inhibition, STS” value is reported as 0%; the “BRET2, % of inhibition, Selenite” value is reported as 77.4%.
For `Cc1ccc(-n2nnnc2-c2cccnc2)cc1` [NSC 23247] the same measures were 97.3%, 0% and 52.1%.
Take `CCN1CCc2ccccc2C1` [NSC 28837]: the “BRET2, % of inhibition, As2O3” value is reported as 85.2%; the “BRET2, % of inhibition, STS” value stood at 0.3%; the “BRET2, % of inhibition, Selenite” value was found to be 48.3%.
On to `CCOc1ccc(Nc2c3ccccc3nc3ccccc23)cc1` [NSC 30205], for which the “BRET2, % of inhibition, As2O3” value is 62.7%; the “BRET2, % of inhibition, STS” value was found to be 0%; the “BRET2, % of inhibition, Selenite” value was found to be 0%.
Regarding `CC(C)COC(=O)NC1c2ccccc2Oc2ccccc21` [NSC 31069], the “BRET2, % of inhibition, As2O3” value was determined as 74.9%; the “BRET2, % of inhibition, STS” value stood at 0%; the “BRET2, % of inhibition, Selenite” value stood at 0%.
Regarding `COc1c(NC(C)=O)c2ccccc2c2ccccc12` [NSC 31698], the “BRET2, % of inhibition, As2O3” value turned out to be 51.3%; the “BRET2, % of inhibition, STS” value is recorded as 0%; the “BRET2, % of inhibition, Selenite” value turned out to be 2.1%.
On the same counts, the results for `CCOC(=O)Nc1ccc(C(=O)/C=C/c2ccccc2)cc1` [NSC 31703] are 56.7%, 16.6% and 33.3%.
With `CC1=CC(=O)C(C(C)=Nc2ccccc2Cl)C(=O)O1` (stereo not drawn) [NSC 32892], the “BRET2, % of inhibition, As2O3” value was found to be 55.4%; the “BRET2, % of inhibition, STS” value is 0%; the “BRET2, % of inhibition, Selenite” value amounted to 16.4%.
Turning to `O=c1c(-c2ccc(O)cc2)coc2cc(O)cc(O)c12` [NSC 36586], the “BRET2, % of inhibition, As2O3” value amounted to 49%; the “BRET2, % of inhibition, STS” value turned out to be 0%; the “BRET2, % of inhibition, Selenite” value is given as 0%.
In the case of `CN1CCN(C(=O)Nc2ccc([N+](=O)[O-])cc2)CC1` [NSC 36815], the “BRET2, % of inhibition, As2O3” value is on record as 67.7%; the “BRET2, % of inhibition, STS” value came to 34.5%; the “BRET2, % of inhibition, Selenite” value is on record as 50%.
In the case of `NC(=O)c1ccc(Oc2ccc(C(N)=O)cc2)cc1` [NSC 39047], the “BRET2, % of inhibition, As2O3” value is recorded as 70.2%; the “BRET2, % of inhibition, STS” value was 39.1%; the “BRET2, % of inhibition, Selenite” value is 54%.
As to `O=C(O)c1cccc2c1C(=O)c1cccc3snc-2c13` [NSC 39938], the “BRET2, % of inhibition, As2O3” value was determined as 48.7%; the “BRET2, % of inhibition, STS” value is listed as 0%; the “BRET2, % of inhibition, Selenite” value turned out to be 18.8%.
For `O=C(O)c1cc2ccccc2cc1Nc1ccccc1` [NSC 40275] the same measures were 64.8%, 16.8% and 35.2%.
As to `O=C(O)c1ccccc1C(=O)Nc1ccccc1[N+](=O)[O-]` [NSC 41066], the “BRET2, % of inhibition, As2O3” value came to 48.8%; the “BRET2, % of inhibition, STS” value was determined as 0%; the “BRET2, % of inhibition, Selenite” value is recorded as 0%.
For the compound `CN1[C@@H]2CC[C@H]1CC(OC(c1ccccc1)c1ccccc1)C2.CS(=O)(=O)O` (stereo partly drawn) [NSC 42199], the “BRET2, % of inhibition, As2O3” value worked out at 97%; the “BRET2, % of inhibition, STS” value was 31%; the “BRET2, % of inhibition, Selenite” value was 78.7%.
On to `O=P(O)(O)c1cc(-c2ccccc2)oc1-c1ccccc1` [NSC 43344], for which the “BRET2, % of inhibition, As2O3” value was determined as 80.7%; the “BRET2, % of inhibition, STS” value was found to be 23.8%; the “BRET2, % of inhibition, Selenite” value amounted to 50.1%.
On the same counts, the results for `CC(C)OC(=O)Nc1ccc(-c2ccc(NC(=O)OC(C)C)cc2Cl)c(Cl)c1` [NSC 43678] are 95.1%, 34.6% and 78.3%.
As for `NCc1c(O)ccc2ccccc12` [NSC 48422], the “BRET2, % of inhibition, As2O3” value was found to be 0%; the “BRET2, % of inhibition, STS” value is 36.8%; the “BRET2, % of inhibition, Selenite” value was 38.6%.
For `O=C(Nc1ccc(C2=NCCN2)cc1)c1ccc(Cl)c(C(=O)Nc2ccc(C3=NCCN3)cc2)c1` [NSC 67436] the same measures were 78.1%, 14.8% and 65.7%.
On the same counts, the results for `Nc1nc(N)c(C=Nc2ccc(Br)cc2)c(Nc2ccc(Br)cc2)n1` [NSC 103520] are 82.5%, 22.7% and 74%.
For `CC#CC#Cc1cccc(=O)o1` [NSC 109292] the same measures were 75.4%, 0% and 0%.
Turning to `O=C1CN2CCC1C/C2=C\c1ccnc2c(Cl)cccc12` (stereo not drawn) [NSC 132868], the “BRET2, % of inhibition, As2O3” value is recorded as 55.5%; the “BRET2, % of inhibition, STS” value came out at 0%; the “BRET2, % of inhibition, Selenite” value was 41.4%.
As for `Cc1ccc([N+](=O)[O-])cc1NC(=O)Nc1ccc(S(N)(=O)=O)cc1` [NSC 146554], the “BRET2, % of inhibition, As2O3” value is given as 100%; the “BRET2, % of inhibition, STS” value came out at 0%; the “BRET2, % of inhibition, Selenite” value is on record as 71.8%.
